In the experiment the target is T1, acyltransferase from M. smegmatis (MsAcT) (Mycolicibacterium smegmatis, UniProt A0R5U7).
T1 construct: gene MSMEG_6317; His6-tagged, expressed in Escherichia coli, cell-free extract
Description: amide formation screen with cell-free extract. Format: cell-based. Conditions: co-substrate benzylamine 20 mM; ester 20 mM; buffer, 30 C.

T1 sequence (A0R5U7 entry or part of it): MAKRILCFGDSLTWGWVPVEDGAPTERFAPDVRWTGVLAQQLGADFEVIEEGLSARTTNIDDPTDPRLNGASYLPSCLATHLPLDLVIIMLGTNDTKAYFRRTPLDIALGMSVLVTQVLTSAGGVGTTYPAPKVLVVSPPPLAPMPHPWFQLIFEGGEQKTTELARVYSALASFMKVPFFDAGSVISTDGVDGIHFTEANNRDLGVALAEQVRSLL

`CCOC(=O)c1ccco1` [1e, ethyl 2-furoate]: the “amide formation screen with cell-free extract” value is “MsAcT and variants displayed activity with ethyl 2-furoate 1e”.

Source of the values: PMC11165448, “Biocatalytic Heteroaromatic Amide Formation in Water Enabled by a Catalytic Tetrad and Two Access Tunnels” (ACS Catalysis, 2024).
